Source: the NIST ThermoML archive (doi:10.1016/j.jct.2004.07.012)
Numbers after ± are expanded uncertainties.

Details: 298.15 K; 101.33 kPa; Liquid
ClCCCl [1,2-dichloroethane] gave a mass density of 1246.34 ± 0.6 kg/m3. For ClCCBr [1-bromo-2-chloroethane], the mass density was 1727.01 ± 2.2 kg/m3. For ClCBr [bromochloromethane], the mass density was 1924.55 ± 1.9 kg/m3. Compound BrCBr [dibromomethane] has a mass density of 2478.36 ± 3.1 kg/m3. Compound CCCO [propan-1-ol] has a mass density of 799.74 ± 0.49 kg/m3.
